Assay results as given in ChEMBL document CHEMBL5390265, “Design, Synthesis, and Pharmacological Evaluation of Multisubstituted Pyrido[4,3-d]pyrimidine Analogues Bearing Deuterated Methylene Linkers as Potent KRASG12D Inhibitors” (J Med Chem, 2023).
Active and inactive are the calls of the source. The rule behind the calls is not given here.

Assays:
GTPase KRas [1] = target: T1, GTPase KRas (Homo sapiens, UniProt P01116); experiment: Inhibition of KRAS in human ASPC1 cells assessed as downregulation of ERK phosphorylation at 0.65 nM incubated for 3 hrs by immunoblotting analysis; type: cell-based; conditions: tested as the 2H-labelled form
GTPase KRas [2] = target: T1, GTPase KRas; experiment: Inhibition of KRAS in human ASPC1 cells assessed as downregulation of ERK phosphorylation incubated for 3 hrs by immunoblotting analysis; type: cell-based; conditions: tested as the 2H-labelled form
GTPase KRas [3] = target: T1, GTPase KRas; experiment: Inhibition of KRAS in human ASPC1 cells assessed as downregulation of AKT phosphorylation incubated for 3 hrs by immunoblotting analysis; type: cell-based; conditions: tested as the 2H-labelled form
GTPase KRas [4] = target: T1, GTPase KRas; experiment: Inhibition of KRAS in human AGS cells assessed as downregulation of ERK phosphorylation incubated for 3 hrs by immunoblotting analysis; type: cell-based; conditions: tested as the 2H-labelled form
GTPase KRas [5] = target: T1, GTPase KRas; experiment: Inhibition of KRAS in human AGS cells assessed as downregulation of AKT phosphorylation incubated for 3 hrs by immunoblotting analysis; type: cell-based; conditions: tested as the 2H-labelled form
GTPase KRas [6] = target: T1, GTPase KRas; experiment: Inhibition of KRAS in human ASPC1 cells assessed as downregulation of AKT phosphorylation at 0.65 nM incubated for 3 hrs by immunoblotting analysis; type: cell-based; conditions: tested as the 2H-labelled form
GTPase KRas [7] = target: T1, GTPase KRas; experiment: Inhibition of KRAS in human AGS cells assessed as downregulation of ERK phosphorylation at 0.65 nM incubated for 3 hrs by immunoblotting analysis; type: cell-based; conditions: tested as the 2H-labelled form
GTPase KRas [8] = target: T1, GTPase KRas; experiment: Inhibition of KRAS in human AGS cells assessed as downregulation of AKT phosphorylation at 0.65 nM incubated for 3 hrs by immunoblotting analysis; type: cell-based; conditions: tested as the 2H-labelled form
GTPase KRas [9] = target: T1, GTPase KRas; experiment: Inhibition of KRAS in human ASPC1 cells assessed as downregulation of ERK phosphorylation at 6.25 to 100 nM incubated for 3 hrs by immunoblotting analysis; type: cell-based; conditions: dose 6.25-100 nM, tested as the 2H-labelled form
ASPC1 [10] = experiment: Antitumor activity against human ASPC1 cells xenografted in mouse assessed as inhibition of ERK phosphorylation level at 10 mg/kg,ip administrated twice daily for 20 consecutive days by immunoblotting analysis; type: functional, organism-based; conditions: tested as the 2H-labelled form
ASPC1 [11] = experiment: Antitumor activity against human ASPC1 cells xenografted in mouse assessed as inhibition of ERK phosphorylation level at 20 mg/kg,ip administrated twice daily for 20 consecutive days by immunoblotting analysis; type: functional, organism-based; conditions: tested as the 2H-labelled form
ASPC1 [12] = experiment: Antitumor activity against human ASPC1 cells xenografted in mouse assessed as inhibition of AKT phosphorylation level at 10 mg/kg,ip administrated twice daily for 20 consecutive days by immunoblotting analysis; type: functional, organism-based; conditions: tested as the 2H-labelled form
ASPC1 [13] = experiment: Antitumor activity against human ASPC1 cells xenografted in mouse assessed as inhibition of AKT phosphorylation level at 20 mg/kg,ip administrated twice daily for 20 consecutive days by immunoblotting analysis; type: functional, organism-based; conditions: tested as the 2H-labelled form
ASPC1 [14] = experiment: Antitumor activity against human ASPC1 cells xenografted in mouse assessed as inhibition of Ki-67 expression level at 10 mg/kg,ip administrated twice daily for 20 consecutive days by immunohistochemistry analysis; type: functional, organism-based; conditions: tested as the 2H-labelled form
ASPC1 [15] = experiment: Antitumor activity against human ASPC1 cells xenografted in mouse assessed as inhibition of Ki-67 expression level at 20 mg/kg,ip administrated twice daily for 20 consecutive days by immunohistochemistry analysis; type: functional, organism-based; conditions: tested as the 2H-labelled form
ASPC1 [16] = experiment: Antiproliferative activity against human ASPC1 cells harboring […] assessed as inhibition of cell growth incubated for 5 days by crystal violet staining analysis; type: functional, cell-based; conditions: Homo sapiens, ASPC1, 120 h
AGS = experiment: Antiproliferative activity against human AGS cells harboring […] assessed as inhibition of cell growth incubated for 5 days by crystal violet staining analysis; type: functional, cell-based; conditions: Homo sapiens, AGS, 120 h
A549 = experiment: Antiproliferative activity against human A549 cells harboring […] assessed as inhibition of cell growth incubated for 5 days by crystal violet staining analysis; type: functional, cell-based; conditions: Homo sapiens, A549, 120 h
NCI-H1299 = experiment: Antiproliferative activity against human NCI-H1299 cells harboring KRAS wild type assessed as inhibition of cell growth incubated for 5 days by crystal violet staining analysis; type: functional, cell-based; conditions: NCI-H1299, 120 h
[17] = Inhibition of recombinant human His6-tagged KRAS4B G12D mutant incubated for 1 hr by HTRF assay
GTPase KRas [18] = target: T1, GTPase KRas; experiment: Inhibition of recombinant human GTP-bound KRAS wild type (1 to 169 residues) incubated for 1 hr by HTRF assay

Compound | inhibition (GTPase KRas [2]) | inhibition (GTPase KRas [3]) | inhibition (GTPase KRas [4]) | inhibition (GTPase KRas [5]) | IC50 (ASPC1 [16]) [nM] | IC50 (AGS) [nM] | IC50 (A549) [nM] | IC50 (NCI-H1299) [nM] | further results
C#Cc1c(F)ccc2cc(O)cc(-c3ncc4c(N5C[C@H]6CC[C@@H](C5)N6)nc(OC[C@]56CCCN5[C@@H](Cn5cc(C(C)(C)O)nn5)CC6)nc4c3F)c12 (racemic) |  |  |  |  | > 50 | > 50 | > 5000 | > 5000 | 
C#Cc1c(F)ccc2cc(O)cc(-c3ncc4c(N5C[C@H]6CC[C@@H](C5)N6)nc(OC(C)C56CCCN5CC(=C)C6)nc4c3F)c12 (stereo partly drawn) |  |  |  |  | > 50 | > 50 | 4500 | > 5000 | 

Continued, in another order:

inhibition (GTPase KRas [2]) | inhibition (GTPase KRas [3]) | inhibition (GTPase KRas [4]) | inhibition (GTPase KRas [5]) | IC50 (ASPC1 [16]) [nM] | IC50 (AGS) [nM] | IC50 (A549) [nM] | IC50 (NCI-H1299) [nM] | Compound | further results
Dose-Dependent Effect | Dose-Dependent Effect | Dose-Dependent Effect | Dose-Dependent Effect |  |  |  |  | C#Cc1c(F)ccc2cc(O)cc(-c3ncc4c(N5C[C@H]6CC[C@@H](C5)N6)nc(OCC56CCCN5CC(=C(F)F)C6)nc4c3F)c12 (stereo partly drawn) | inhibition (GTPase KRas [1]): Active; inhibition (GTPase KRas [6]): Active; inhibition (GTPase KRas [7]): Active; inhibition (GTPase KRas [8]): Active; inhibition (GTPase KRas [9]): > 90%; Activity (ASPC1 [10]): Active; Activity (ASPC1 [11]): Active; Activity (ASPC1 [12]): Active; Activity (ASPC1 [13]): Active; Activity (ASPC1 [14]): Active; Activity (ASPC1 [15]): Active
Dose-Dependent Effect | Dose-Dependent Effect | Dose-Dependent Effect | Dose-Dependent Effect |  |  |  |  | C#Cc1c(F)ccc2cccc(-c3ncc4c(N5C[C@H]6CC[C@@H](C5)N6)nc(OCC56CCCN5CC(=C(F)F)C6)nc4c3F)c12 (stereo partly drawn) | 
 |  |  |  | 23.7 | 22.5 | 1090 | 1410 | [2H]C([2H])(Oc1nc(N2C[C@H]3CC[C@@H](C2)N3)c2cnc(-c3cccc4ccc(F)c(C#C)c34)c(F)c2n1)C12CCCN1CC(=C(F)F)C2 (stereo partly drawn) | IC50 [17]: 2.21 nM; IC50 (GTPase KRas [18]): 20.3 nM
